These results are taken from PMC5404377 (Bioorganic & medicinal chemistry letters, 2016).

Molecules are shown by their SMILES. A value given as a limit tells only on which side of the number the result lay.

What is called Emax is the size of the effect at its maximum, as opposed to the concentration needed. Usually Ki stands for the dissociation constant of the complex between target and ligand, obtained from inhibition or displacement. By EC50 is commonly meant the midpoint of the concentration-response curve.

One experiment addresses MOR (Rattus norvegicus, UniProt P33535). The experiment in a line: [35S]GTPγS assay, agonist efficacy at MOR. Conditions: for Emax: read-out: MOR %Emax; for MOR functional profile: [35S]GTPγS. Format: biochemical. (GTPγS resists hydrolysis and so accumulates on activated G proteins.)
The target of another experiment is DOR (Rattus norvegicus, UniProt P33533). Briefly: [35S]GTPγS assay, agonist efficacy at DOR. Format: biochemical. The conditions noted are these: for agonist activity at DOR: [35S]GTPγS.
DOR, sequence (P33533 whole entry): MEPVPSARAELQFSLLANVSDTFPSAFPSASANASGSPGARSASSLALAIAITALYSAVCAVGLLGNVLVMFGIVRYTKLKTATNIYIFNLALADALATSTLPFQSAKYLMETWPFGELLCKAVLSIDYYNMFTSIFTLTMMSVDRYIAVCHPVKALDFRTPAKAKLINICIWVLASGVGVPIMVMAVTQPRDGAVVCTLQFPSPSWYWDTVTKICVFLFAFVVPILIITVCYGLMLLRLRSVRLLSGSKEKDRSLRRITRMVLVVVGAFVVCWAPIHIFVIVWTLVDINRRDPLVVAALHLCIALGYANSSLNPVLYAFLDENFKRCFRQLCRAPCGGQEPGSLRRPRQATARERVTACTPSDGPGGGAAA
Another experiment concerns the target hMOR (Homo sapiens, UniProt P35372). The conditions noted are these: read-out: Ki (nM) MOR; literature value; ref [14]; cited from earlier work.
A further experiment deals with hKOR (Homo sapiens, UniProt P41145). The conditions noted are these: read-out: Ki (nM) KOR; literature value; ref [14]; cited from earlier work.
hKOR, sequence (P41145 whole entry): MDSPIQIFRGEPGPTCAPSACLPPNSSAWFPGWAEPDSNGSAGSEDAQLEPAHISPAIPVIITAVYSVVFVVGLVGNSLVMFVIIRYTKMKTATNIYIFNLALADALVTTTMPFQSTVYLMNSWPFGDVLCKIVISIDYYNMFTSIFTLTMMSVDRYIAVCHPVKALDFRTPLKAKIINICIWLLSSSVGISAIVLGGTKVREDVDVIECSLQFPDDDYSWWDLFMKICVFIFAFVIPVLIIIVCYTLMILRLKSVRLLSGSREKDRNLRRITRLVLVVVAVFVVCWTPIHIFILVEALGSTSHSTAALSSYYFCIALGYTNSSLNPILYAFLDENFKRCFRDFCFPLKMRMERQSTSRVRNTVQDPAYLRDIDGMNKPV
Experiment [1] relates to Male Swiss-Webster mice. The experiment in a line: Tail-flick nociceptive test. Format: in vivo. The conditions noted are these: mouse.
Experiment [2] concerns Male Swiss-Webster mice. Briefly: Hot plate nociception test. Format: in vivo. Conditions: mouse.

MOR, sequence (P33535 whole entry): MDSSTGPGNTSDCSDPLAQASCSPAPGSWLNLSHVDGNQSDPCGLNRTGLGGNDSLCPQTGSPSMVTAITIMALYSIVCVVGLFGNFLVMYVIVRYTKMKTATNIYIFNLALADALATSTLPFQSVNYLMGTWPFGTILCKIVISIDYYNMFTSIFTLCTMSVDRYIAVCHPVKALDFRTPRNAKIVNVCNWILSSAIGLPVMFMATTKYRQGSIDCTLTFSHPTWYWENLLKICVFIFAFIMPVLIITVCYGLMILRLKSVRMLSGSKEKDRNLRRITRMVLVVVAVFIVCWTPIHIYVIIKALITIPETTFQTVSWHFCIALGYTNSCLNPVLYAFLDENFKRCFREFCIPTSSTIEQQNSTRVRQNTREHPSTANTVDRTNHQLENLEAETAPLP
hMOR, sequence (P35372 whole entry): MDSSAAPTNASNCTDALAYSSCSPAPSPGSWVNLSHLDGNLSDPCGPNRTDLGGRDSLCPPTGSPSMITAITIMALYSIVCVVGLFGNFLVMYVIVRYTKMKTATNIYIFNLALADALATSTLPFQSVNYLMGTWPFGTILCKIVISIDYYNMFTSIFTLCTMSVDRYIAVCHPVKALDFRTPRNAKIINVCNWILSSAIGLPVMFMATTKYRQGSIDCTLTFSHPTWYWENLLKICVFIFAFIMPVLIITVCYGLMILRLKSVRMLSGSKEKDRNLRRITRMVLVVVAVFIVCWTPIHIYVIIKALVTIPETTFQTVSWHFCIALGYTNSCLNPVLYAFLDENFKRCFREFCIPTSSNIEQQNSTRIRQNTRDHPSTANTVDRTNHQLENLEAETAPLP

Turning to `O=C1/C(=C/c2ccccc2)C[C@@]2(O)[C@H]3Cc4ccc(O)c5c4[C@@]2(CCN3CCCc2ccccc2)[C@H]1O5` [Compound 8], at MOR, the Emax is less than 10%.
In the case of `O=C1/C(=C/c2ccccc2)C[C@@]2(O)[C@H]3Cc4ccc(O)c5c4[C@@]2(CCN3CCc2ccccc2)[C@H]1O5` [Compound 7], at MOR, the MOR functional profile entry was “partial agonists” and the Emax was found to be 52 ± 3.8%. Besides, the “agonist activity at DOR” value at DOR is given as “no significant agonist activity”. On DOR (read-out: DOR %Emax), the Emax was less than 10%.
As for `O=C1/C(=C/c2ccccc2)C[C@@]2(O)[C@H]3Cc4ccc(O)c5c4[C@@]2(CCN3CC2CC2)[C@H]1O5` [BNTX, benzylidenenaltrexone], the Ki is 26 nM on hMOR and 48 nM at hKOR.
For the compound `CN1CC[C@]23c4c5ccc(O)c4O[C@H]2C(=O)/C(=C/c2ccccc2)C[C@@]3(O)[C@H]1C5` [Compound 6, 7-benzylideneoxymorphone], the “tail-flick antinociception compared to saline control” value with Male Swiss-Webster mice [1] (50 mg/kg s.c., at 70 min (p<0.01)) is reported as “significantly greater antinociception”; in the experiment with Male Swiss-Webster mice [1] (60 mg/kg s.c., at 30 (p<0.001), 50 (p<0.01), 70 (p<0.01) min), “significantly greater antinociception”. Besides, in the experiment with Male Swiss-Webster mice [1] (60 mg/kg s.c., post-administration), the “time of peak antinociception effects, tail-flick” value was 30 min. Further, the “hot plate antinociception compared to saline control” value in the experiment on Male Swiss-Webster mice [2] (50 mg/kg s.c., at 30 min (p<0.05)) was “significantly greater antinociception”; with Male Swiss-Webster mice [2] (60 mg/kg s.c., at 30 (p<0.01), 50 (p<0.001), 70 (p<0.05) min), “significantly greater antinociception”. Besides, the “Emax, hot plate antinociception” value in the experiment with Male Swiss-Webster mice [2] (s.c., increasing doses 20-60 mg/kg) is reported as “approximately 40 % MPE”. The same compound had an EC50 at MOR of 72 ± 11 nM. Besides, the MOR functional profile entry on MOR is recorded as “partial agonists”. For the same compound, on MOR, the Emax stood at 39 ± 1.3%. Also, the “agonist activity at DOR” value at DOR is “no significant agonist activity”.
